The values that follow come from patent publication EP3901142A1, “PYRAZOLYLBENZENE-1,3-DIOLS FOR DISEASES ASSOCIATED WITH G PROTEIN-COUPLED RECEPTOR 18 AND IN COMBINATION WITH TRANSIENT RECEPTOR POTENTIAL VANILLOID 1” (Consejo Superior de Investigaciones Científicas (CSIC), priority 2020, dated 2021).

The assay addresses TRPV1 (Homo sapiens, UniProt Q8NER1). Put plainly: Calcium imaging (Fura-2 AM) in TRPV1-expressing cells. Particulars: 5 µM; TPRV1-expressing cells. The format is cell-based. On the procedure: Cell Culture. A plasmid containing GPR18 (NM_005292) was obtained from Origene (Rockville, MD) and engineered with an N-terminal GFP-tag. The resulting plasmid was used to transfect CHO-K1 cells using Lipofectamine 2000 (Invitrogen, Carlsbad CA). Clonal cells were selected in medium containing G418 (Geneticin, 800 µg/ml; Enzo Life Sciences, Farmingdale, NY). Two weeks after transfection, clones were isolated and expression was verified by fluorescence microscopy of GFP-tagged receptors. The resulting stable cell line was cultured in DMEM with 10% fetal bovine serum at 37°C, 5% CO2 and passaged every 2-3 days. […] Two weeks after transfection, clones were isolated and expression was verified by fluorescence microscopy of HA-tagged receptors. […] Intracellular calcium levels were determined by measuring fluorescence emissions from Fura-2 AM (510 nm) after alternating excitation at 340 and 380 nm at 0.25 Hz for 5 min. Images were analyzed in the NIS-Elements AR software (Nikon), and the fluorescence ratio at 340nm/380nm was converted to Ca^2+ concentrations.

Sequence of TRPV1 (Q8NER1 whole entry): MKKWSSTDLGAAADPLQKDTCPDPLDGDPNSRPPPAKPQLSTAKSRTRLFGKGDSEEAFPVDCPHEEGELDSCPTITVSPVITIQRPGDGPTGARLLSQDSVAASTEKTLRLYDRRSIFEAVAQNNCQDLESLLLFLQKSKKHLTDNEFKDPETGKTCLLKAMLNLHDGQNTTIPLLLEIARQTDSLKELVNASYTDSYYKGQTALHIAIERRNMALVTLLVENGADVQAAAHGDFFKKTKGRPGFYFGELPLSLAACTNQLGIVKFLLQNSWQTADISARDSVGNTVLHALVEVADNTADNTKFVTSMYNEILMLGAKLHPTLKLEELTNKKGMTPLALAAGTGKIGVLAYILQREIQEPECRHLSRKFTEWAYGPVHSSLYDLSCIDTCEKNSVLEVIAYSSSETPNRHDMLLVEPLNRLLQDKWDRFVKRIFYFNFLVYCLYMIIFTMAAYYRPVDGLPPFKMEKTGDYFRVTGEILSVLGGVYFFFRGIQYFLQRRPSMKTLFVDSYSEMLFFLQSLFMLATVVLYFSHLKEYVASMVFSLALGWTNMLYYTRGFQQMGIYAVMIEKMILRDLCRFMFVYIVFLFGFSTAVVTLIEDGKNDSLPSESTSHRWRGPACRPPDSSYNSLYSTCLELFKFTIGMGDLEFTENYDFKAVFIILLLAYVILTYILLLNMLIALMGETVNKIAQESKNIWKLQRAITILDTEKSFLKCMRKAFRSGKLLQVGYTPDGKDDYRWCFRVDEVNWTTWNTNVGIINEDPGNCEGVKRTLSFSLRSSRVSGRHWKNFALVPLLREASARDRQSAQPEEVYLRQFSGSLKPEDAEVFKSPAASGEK

Regarding `CCCCC/C=C\C/C=C\C/C=C\C/C=C\CCCC(=O)NCCO` [Anandamide], the “effect on intracellular calcium (Ca^2+)” value is on record as “increases intracellular calcium (Ca^2+)”.
